# Reference: ChEMBL document CHEMBL3817813, “Exploiting the co-reliance of tumours upon transport of amino acids and lactate: Gln and Tyr conjugates of MCT1 inhibitors” (Medchemcomm, 2016)
# Calls of active or inactive are those of the source. No cut-off for these calls is given here.
# Tests used:
# MDA-MB-231 = assay: Cytotoxicity against MCT1-deficient human MDA-MB-231 cells at 10 uM measured after 96 hrs by MTT assay; format: cell-based; conditions: mda-mb-231, 96 h
# [1] = Drug uptake in Sprague-Dawley rat spleen at 20 mg/kg, ip measured after 6 hrs by LC-MS/MS analysis; format: ADME, organism-based; conditions: read-out: Drug uptake
# [2] = Drug uptake in Sprague-Dawley rat lung at 20 mg/kg, ip measured after 6 hrs by LC-MS/MS analysis; format: ADME, organism-based; conditions: read-out: Drug uptake
# [3] = Drug uptake in Sprague-Dawley rat lung at 20 mg/kg, ip measured after 7 days by LC-MS/MS analysis; format: ADME, organism-based; conditions: read-out: Drug uptake
# [4] = Drug uptake in Sprague-Dawley rat kidney at 20 mg/kg, ip measured after 6 hrs by LC-MS/MS analysis; format: ADME, organism-based; conditions: read-out: Drug uptake
# [5] = Drug uptake in Sprague-Dawley rat blood at 20 mg/kg, ip measured after 6 hrs by LC-MS/MS analysis; format: ADME, organism-based; conditions: whole blood, read-out: Drug uptake
# [6] = Drug uptake in Sprague-Dawley rat spleen at 20 mg/kg, ip measured after 7 days by LC-MS/MS analysis; format: ADME, organism-based; conditions: read-out: Drug uptake
# [7] = Drug uptake in Sprague-Dawley rat kidney at 20 mg/kg, ip measured after 7 days by LC-MS/MS analysis; format: ADME, organism-based; conditions: read-out: Drug uptake
# [8] = Drug uptake in Sprague-Dawley rat blood at 20 mg/kg, ip measured after 7 days by LC-MS/MS analysis; format: ADME, organism-based; conditions: whole blood, read-out: Drug uptake
# [9] = Drug uptake in Sprague-Dawley rat liver at 20 mg/kg, ip measured after 7 days by LC-MS/MS analysis; format: ADME, organism-based; conditions: read-out: Drug uptake
# [10] = Drug uptake in Sprague-Dawley rat liver at 20 mg/kg, ip measured after 6 hrs by LC-MS/MS analysis; format: ADME, organism-based; conditions: read-out: Drug uptake
# [11] = Drug uptake in Sprague-Dawley rat blood at 20 mg/kg, ip measured after 24 hrs by LC-MS/MS analysis; format: ADME, organism-based; conditions: whole blood, read-out: Drug uptake
# [12] = Drug uptake in Sprague-Dawley rat brain at 20 mg/kg, ip measured after 7 days by LC-MS/MS analysis; format: ADME, organism-based; conditions: read-out: Drug uptake
# [13] = Drug uptake in Sprague-Dawley rat brain at 20 mg/kg, ip measured after 24 hrs by LC-MS/MS analysis; format: ADME, organism-based; conditions: read-out: Drug uptake
# [14] = Drug uptake in Sprague-Dawley rat spleen at 20 mg/kg, ip measured after 24 hrs by LC-MS/MS analysis; format: ADME, organism-based; conditions: read-out: Drug uptake
# [15] = Drug uptake in Sprague-Dawley rat kidney at 20 mg/kg, ip measured after 24 hrs by LC-MS/MS analysis; format: ADME, organism-based; conditions: read-out: Drug uptake
# [16] = Drug uptake in Sprague-Dawley rat plasma at 20 mg/kg, ip measured after 6 hrs by LC-MS/MS analysis; format: ADME, organism-based
# [17] = target: T1, Monocarboxylate transporter 1 (Homo sapiens) (UniProt P53985); assay: Activity at MCT1 (unknown origin) using [14C]lactate by cell based lactate flux assay
# T1 sequence (whole entry): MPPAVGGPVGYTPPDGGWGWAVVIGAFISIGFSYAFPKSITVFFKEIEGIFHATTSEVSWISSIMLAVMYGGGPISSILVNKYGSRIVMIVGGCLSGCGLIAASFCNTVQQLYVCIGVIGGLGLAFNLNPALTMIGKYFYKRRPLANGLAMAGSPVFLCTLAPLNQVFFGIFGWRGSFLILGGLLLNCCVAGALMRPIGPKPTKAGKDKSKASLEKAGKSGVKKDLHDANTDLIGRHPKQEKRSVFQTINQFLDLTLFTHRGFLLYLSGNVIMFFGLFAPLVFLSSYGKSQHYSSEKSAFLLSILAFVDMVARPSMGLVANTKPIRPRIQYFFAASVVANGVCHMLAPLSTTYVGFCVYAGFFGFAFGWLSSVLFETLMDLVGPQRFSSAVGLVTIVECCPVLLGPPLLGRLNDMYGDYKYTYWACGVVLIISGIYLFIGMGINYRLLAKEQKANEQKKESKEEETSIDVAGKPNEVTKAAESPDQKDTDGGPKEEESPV
# [18] = Drug uptake in Sprague-Dawley rat plasma at 20 mg/kg, ip measured after 24 hrs by LC-MS/MS analysis; format: ADME, organism-based
# [19] = Drug uptake in NOD/SCID mouse tumor measured after 24 hrs; format: ADME, Neoplasm; conditions: read-out: Drug uptake
# [20] = Drug uptake in Sprague-Dawley rat lung at 20 mg/kg, ip measured after 24 hrs by LC-MS/MS analysis; format: ADME, organism-based; conditions: read-out: Drug uptake
# [21] = Drug uptake in Sprague-Dawley rat brain at 20 mg/kg, ip measured after 6 hrs by LC-MS/MS analysis; format: ADME, organism-based; conditions: read-out: Drug uptake
# [22] = Drug uptake in Sprague-Dawley rat liver at 20 mg/kg, ip measured after 24 hrs by LC-MS/MS analysis; format: ADME, organism-based; conditions: read-out: Drug uptake
# [23] = Drug uptake in Sprague-Dawley rat plasma at 20 mg/kg, ip measured after 7 days by LC-MS/MS analysis; format: ADME, organism-based
smiles,measurement,setting,value
CC(C)Cc1nn(C)c(=O)c2c(SCCCO)n(Cc3cc(NCCCCCN)nc4ccccc34)cc12,Activity,MDA-MB-231,Non-toxic
CC(C)Cc1nn(C)c(=O)c2c(SCCCO)n(Cc3ccnc(NCCCCCNC(=O)[C@@H](N)CCC(N)=O)c3)cc12,Activity,MDA-MB-231,Non-toxic
CC(C)Cc1nn(C)c(=O)c2c(SCCCO)n(Cc3ccc(C#CCCCOc4ccc(C[C@H](N)C(=O)O)cc4)c4ccccc34)cc12,concentration at 6 h,[1],2260 nM
same,concentration at 6 h,[2],1540 nM
same,concentration at 168 h,[3],110 nM
same,Activity,MDA-MB-231,Non-toxic
same,concentration at 6 h,[4],1620 nM
same,concentration at 6 h,[5],4330 nM
same,concentration at 168 h,[6],190 nM
same,concentration at 168 h,[7],210 nM
same,concentration at 168 h,[8],41 nM
same,concentration at 168 h,[9],98 nM
same,concentration at 6 h,[10],2500 nM
same,concentration at 24 h,[11],76 nM
same,concentration at 168 h,[12],43 nM
same,concentration at 24 h,[13],62 nM
same,concentration at 24 h,[14],1060 nM
same,concentration at 24 h,[15],960 nM
same,concentration at 6 h,[16],3270 nM
same,Activity,[17],Active
same,concentration at 24 h,[18],12 nM
same,concentration at 24 h,[19],300 nM
same,concentration at 24 h,[20],520 nM
same,concentration at 6 h,[21],110 nM
same,concentration at 24 h,[22],940 nM
same,concentration at 168 h,[23],4 nM
CC(C)Cc1nn(C)c(=O)c2c(SCCCO)n(Cc3ccc(NCCCCCNC(=O)[C@@H](N)CCC(N)=O)nc3)cc12,Activity,MDA-MB-231,Non-toxic
CC(C)Cc1nn(C)c(=O)c2c(SCCCO)n(Cc3ccc(Cl)nc3)cc12,Activity,MDA-MB-231,Non-toxic
CC(C)Cc1nn(C)c(=O)c2c(SCCCO)n(Cc3cnc(Cl)c4ccccc34)cc12,Activity,MDA-MB-231,Non-toxic
CC(C)Cc1nn(C)c(=O)c2c(SCCCO)n(Cc3cc(Cl)nc4ccccc34)cc12,Activity,MDA-MB-231,Non-toxic
CC(C)Cc1nn(C)c(=O)c2c(SCCCO)n(Cc3ccnc(NCCCCCN)c3)cc12,Activity,MDA-MB-231,Non-toxic
CC(C)Cc1nn(C)c(=O)c2c(SCCCO)n(Cc3ccnc(Cl)c3)cc12,Activity,MDA-MB-231,Non-toxic
CC(C)Cc1nn(C)c(=O)c2c(SCCCO)n(Cc3ccc(Br)c4ccccc34)cc12,Activity,MDA-MB-231,Non-toxic
CC(C)Cc1nn(C)c(=O)c2c(SCCCO)n(Cc3cccc4ccccc34)cc12,concentration at 6 h,[1],740 nM
same,concentration at 6 h,[2],61 nM
same,Activity,MDA-MB-231,Non-toxic
same,concentration at 6 h,[4],120 nM
same,concentration at 6 h,[5],140 nM
same,concentration at 168 h,[6],43 nM
same,concentration at 6 h,[10],63 nM
same,concentration at 24 h,[11],63 nM
same,concentration at 24 h,[13],270 nM
same,concentration at 24 h,[14],420 nM
same,concentration at 24 h,[15],160 nM
same,concentration at 6 h,[16],27 nM
same,concentration at 24 h,[18],4 nM
same,concentration at 24 h,[20],74 nM
same,concentration at 6 h,[21],190 nM
same,concentration at 24 h,[22],60 nM
CC(C)Cc1nn(C)c(=O)c2c(SCCCO)n(Cc3cnc(NCCCCCNC(=O)[C@@H](N)CCC(N)=O)c4ccccc34)cc12,Activity,MDA-MB-231,Non-toxic
same,Activity,[17],Active
CC(C)Cc1nn(C)c(=O)c2c(SCCCO)n(Cc3ccc(C#CCCCNC(=O)[C@@H](N)CCC(N)=O)c4ccccc34)cc12,Activity,MDA-MB-231,Non-toxic
same,Activity,[17],Active
CC(C)Cc1nn(C)c(=O)c2c(SCCCO)n(Cc3cc(NCCCCCNC(=O)[C@@H](N)CCC(N)=O)nc4ccccc34)cc12,Activity,MDA-MB-231,Non-toxic
CC(C)Cc1nn(C)c(=O)c2c(SCCCO)n(Cc3ccc(NCCCCCN)nc3)cc12,Activity,MDA-MB-231,Non-toxic
CC(C)Cc1nn(C)c(=O)c2c(SCCCO)n(Cc3cnc(NCCCCCN)c4ccccc34)cc12,Activity,MDA-MB-231,Non-toxic
